Among the test systems are Staph. aureus 01A005; Staph. aureus 01A106; E. Coli 51A-266; E. Coli 51A-218; Strep. pyogen 02C203; Strep. equi 021001; Strep. zoo 02-H001; Sal. typhim 58D011; Sal. dublin 58U001; Sal. cholsu 58B242; Aer. hydro 72B001; Past. mult 59A004; Past. mult 59A006.
Common to all, as to experiment: in vitro MIC, Inocula Replicating Device, anaerobic Gas Pac, BHI agar
Holding throughout (format): cell-based
Common to all, as to details: unit assumed

Here are results for 5 compounds from US3966951A, “Esters of quinoxaline-1,4-dioxides” (Pfizer Inc., priority 1975, dated 1976).

Take `CC(=O)c1c(COC(=O)c2ccc(O)cc2)[n+]([O-])c2ccccc2[n+]1[O-]` [Compound 1]: the Primary in vitro Activity (MIC) is 1.56 µg/mL with Staph. aureus 01A005; 1.56 µg/mL with Staph. aureus 01A106; 50 µg/mL in the test with E. Coli 51A-266; 50 µg/mL in the test on E. Coli 51A-218; 3.12 µg/mL in the test with Strep. pyogen 02C203; < 1.56 µg/mL in the test on Strep. equi 021001. Besides, the Primary in vitro Activity (MIC) is < 1.56 µg/mL in the test on Strep. zoo 02-H001; 50 µg/mL in the test on Sal. typhim 58D011; 50 µg/mL in the test with Sal. dublin 58U001; 50 µg/mL with Sal. cholsu 58B242; 6.25 µg/mL in the test on Aer. hydro 72B001; 12.5 µg/mL in the test on Past. mult 59A004. Moreover, in the test on Past. mult 59A006, the Primary in vitro Activity (MIC) stood at 25 µg/mL.

Take `CC(=O)c1c(COC(=O)c2cccc(O)c2)[n+]([O-])c2ccccc2[n+]1[O-]` [Compound 2]: the Primary in vitro Activity (MIC) is 12.5 µg/mL in the test on Staph. aureus 01A005; 6.25 µg/mL in the test with Staph. aureus 01A106; < 100 µg/mL in the test on E. Coli 51A-266; 50 µg/mL in the test on E. Coli 51A-218; 25 µg/mL in the test on Strep. pyogen 02C203; < 1.56 µg/mL with Strep. equi 021001. Moreover, the Primary in vitro Activity (MIC) with Strep. zoo 02-H001 was < 100 µg/mL; with Sal. typhim 58D011, < 100 µg/mL; with Sal. dublin 58U001, < 100 µg/mL; in the test on Sal. cholsu 58B242, < 100 µg/mL; in the test on Aer. hydro 72B001, 3.2 µg/mL; in the test on Past. mult 59A004 it was 12.5 µg/mL. Also, the Primary in vitro Activity (MIC) in the test on Past. mult 59A006 turned out to be 25 µg/mL.

In the case of `CC(=O)c1c(COC(=O)Cc2ccc(O)cc2)[n+]([O-])c2ccccc2[n+]1[O-]` [Compound 3], the Primary in vitro Activity (MIC) in the test with Staph. aureus 01A005 is 0.78 µg/mL; in the test with Staph. aureus 01A106 it was 1.56 µg/mL; in the test on E. Coli 51A-266 it was 12.5 µg/mL; in the test with E. Coli 51A-218, 12.5 µg/mL; in the test on Strep. pyogen 02C203, 6.25 µg/mL; in the test with Strep. equi 021001 it was < 1.56 µg/mL. In addition, the Primary in vitro Activity (MIC) with Strep. zoo 02-H001 was < 1.56 µg/mL; in the test on Sal. typhim 58D011 it was 50 µg/mL; in the test with Sal. dublin 58U001, 50 µg/mL; in the test with Sal. cholsu 58B242 it was 50 µg/mL; with Aer. hydro 72B001, < 1.56 µg/mL; in the test on Past. mult 59A004 it was 12.5 µg/mL. Also, the Primary in vitro Activity (MIC) with Past. mult 59A006 came out at 6.25 µg/mL.

For `O=C(OCc1c(CO)[n+]([O-])c2ccccc2[n+]1[O-])c1ccc(O)cc1` [Compound 4], the Primary in vitro Activity (MIC) in the test on Staph. aureus 01A005 was 3.2 µg/mL; in the test with Staph. aureus 01A106, 3.2 µg/mL; in the test on E. Coli 51A-266, 25 µg/mL; in the test on E. Coli 51A-218 it was 50 µg/mL; in the test on Strep. pyogen 02C203, < 1.56 µg/mL; in the test on Strep. equi 021001, < 1.56 µg/mL. The Primary in vitro Activity (MIC) in the test with Strep. zoo 02-H001 came to 100 µg/mL; in the test with Sal. typhim 58D011 it was 25 µg/mL; in the test on Sal. dublin 58U001 it was 25 µg/mL; in the test on Sal. cholsu 58B242 it was 50 µg/mL; with Aer. hydro 72B001, 12.5 µg/mL; with Past. mult 59A004 it was 100 µg/mL. Further, the Primary in vitro Activity (MIC) in the test with Past. mult 59A006 came to 12.5 µg/mL.

Take `O=C(CCc1ccc(O)cc1)OCc1c(CO)[n+]([O-])c2ccccc2[n+]1[O-]` [Compound 5]: the Primary in vitro Activity (MIC) in the test on Staph. aureus 01A005 amounted to 25 µg/mL; in the test on Staph. aureus 01A106 it was 25 µg/mL; with E. Coli 51A-266 it was 100 µg/mL; in the test with E. Coli 51A-218, 100 µg/mL; with Strep. pyogen 02C203, 50 µg/mL; with Strep. equi 021001, 12.5 µg/mL. Also, the Primary in vitro Activity (MIC) in the test on Strep. zoo 02-H001 worked out at 100 µg/mL; in the test on Sal. typhim 58D011, 100 µg/mL; with Sal. dublin 58U001 it was 100 µg/mL; with Sal. cholsu 58B242 it was 100 µg/mL; with Aer. hydro 72B001 it was 12.5 µg/mL; in the test on Past. mult 59A004, 50 µg/mL. Moreover, the Primary in vitro Activity (MIC) in the test with Past. mult 59A006 is 50 µg/mL.
